Data reported in patent publication US10786547B2, “Compositions, articles of manufacture and methods for treating cancer” (Biokine Therapeutics Ltd., priority 2015, dated 2020).
“Also recorded” adds a separate entry of the source. [ ]: non-standard residue; d: D form. The star is where a group is joined. Benzoyl(4-F) = O=C(c1ccc(F)cc1)*; Cit = NC(=O)NCCC[C@H](N)C(=O)O

Assays:
[1] = in vivo
CXCR4 receptor = CXCR4 receptor (Homo sapiens, UniProt P61073); details: cited from earlier work
[2] = test system: immune cells including immature stem/progenitor cells, T cells and NK cells; assay: in-vivo administration, mobilization of immune and stem/progenitor cells; details: to the peripheral blood
[3] = test system: CD34+ hematopoietic stem/progenitor cells (HSPC); details: multiple myeloma patients, combined treatment of BL-8040 and G-CSF, single aphaeresis procedure; cited from earlier work
[4] = test system: immune cells including immature stem/progenitor cells, T cells and NK cells; details: "It has been shown"; cited from earlier work
[5] = test system: myeloid leukemia, hematopoietic tumors and non-small cell lung cancer; details: cited from earlier work
[6] = test system: long term repopulating stem cells; details: mice, single BL-8040 injection; cited from earlier work

Sequence of CXCR4 receptor (P61073 whole entry): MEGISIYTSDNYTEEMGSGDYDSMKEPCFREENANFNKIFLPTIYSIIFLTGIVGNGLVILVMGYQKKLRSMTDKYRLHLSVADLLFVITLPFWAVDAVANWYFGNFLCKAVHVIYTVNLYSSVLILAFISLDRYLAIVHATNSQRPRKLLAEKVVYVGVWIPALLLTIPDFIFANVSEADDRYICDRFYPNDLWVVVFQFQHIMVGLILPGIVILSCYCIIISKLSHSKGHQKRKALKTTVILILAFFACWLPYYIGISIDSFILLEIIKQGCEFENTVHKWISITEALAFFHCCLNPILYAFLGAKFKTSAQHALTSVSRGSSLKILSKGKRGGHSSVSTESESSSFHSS

In the case of “4F-benzoyl-Arg-Arg-Nal-Cys-Tyr-Cit-Lys-DLys-Pro-Tyr-Arg-Cit-Cys-Arg-NH2 ({Benzoyl(4-F)}-RR[Nal]CY[Cit]K[dK]PYR[Cit]CR-NH2; cysteine pairing not given here) [BL-8040]”, the safety and tolerability [1] is given as “safe and well tolerated”, the receptor occupancy (CXCR4 receptor; CXCR4 receptor) is given as “long receptor occupancy” and the “affinity of binding to the CXCR4 receptor” value (CXCR4 receptor) is given as “high affinity”. For the same substance, the “mobilization of immune cells” value [2] was “induces rapid mobilization of a variety of immune cells including immature stem/progenitor cells as well as fully differentiated T cells and NK cells; also recorded: induce rapid mobilization of hematopoietic stem/progenitor cells and mesenchymal stem cells as well as T cells, B cells, NK cells, NKT cells and ImDC to the peripheral blood”, the “collection of CD34+ hematopoietic stem/progenitor cells (HSPC)” value [3] was “enabled the collection of high number of CD34+ hematopoietic stem/progenitor cells (HSPC) in a single aphaeresis procedure” and the “mobilization of CD34+ hematopoietic stem/progenitor cells (HSPC)” value [4] was “induces mobilization of CD34+ hematopoietic stem/progenitor cells (HSPC) that can be further used for transplantation”. For the same substance, the toxicity against tumors [5] was “toxic against several tumors such as myeloid leukemia, hematopoietic tumors and non-small cell lung cancer” and the “mobilization of long term repopulating stem cells” value [6] was “mobilized long term repopulating stem cells sufficient for transplantation”.
